Source: the supplement of paper PMC10733146

Legend:
Experiment in all cases: viability relative to DMSO control (fraction); higher = less drug effect (more viable cells)
Details in all cases: 48 h
[1] = compound: COc1cc([C@@H]2c3cc4c(cc3[C@@H](O[C@@H]3O[C@@H]5CO[C@@H](C)O[C@H]5[C@H](O)[C@H]3O)[C@H]3COC(=O)[C@H]23)OCO4)cc(OC)c1O [Etoposide]
Summary of the method: (§1)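 Viability was measured as CellTiter-Glo luminescence relative to the median of 16 inner DMSO wells. Primary mononuclear tumour cells, fresh or cryopreserved, were Ficoll-isolated from blood or bone marrow or taken from processed lymph node. They were seeded at 4 × 10^4 cells per well into 384-well plates holding pre-plated compounds at five concentrations, one well each, and kept in RPMI-1640 with penicillin/streptomycin, L-glutamine and human serum at 37 °C and 5% CO2 for 48 h.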

[2] = compound: C[C@H](Nc1ncnc2nc[nH]c12)c1cc2cccc(Cl)c2c(=O)n1-c1ccccc1 [Duvelisib]
Summary of the method: as §1

[3] = compound: Cn1c(CCCC(=O)O)nc2cc(N(CCCl)CCCl)ccc21 [Bendamustine]
Summary of the method: as §1

[4] = compound: Nc1cccc2c1C(=O)N(C1CCC(=O)NC1=O)C2=O [Pomalidomide]
Summary of the method: as §1

[5] = compound: O=C(/C=C\n1cnc(-c2cc(C(F)(F)F)cc(C(F)(F)F)c2)n1)NNc1cnccn1 [Selinexor]
Summary of the method: as §1

[6] = compound: O=C(NO)c1cccc(C(=O)NCCc2ccccc2)c1
Summary of the method: as §1

[7] = compound: O=C(Nc1ccc2[nH]nc(-c3ccncc3)c2c1)[C@@H]1CCN(CC(=O)N2CCN(c3ccc(-c4ncccn4)cc3)CC2)C1
Summary of the method: as §1

[8] = compound: O=C(Nc1nc2cccc(-c3ccc(CN4CCS(=O)(=O)CC4)cc3)n2n1)C1CC1 [Filgotinib]
Summary of the method: as §1

[9] = compound: O=C(O)CCCc1ccc(N(CCCl)CCCl)cc1 [Chlorambucil]
Summary of the method: as §1

[10] = compound: O=C1CCC(N2C(=O)c3ccccc3C2=O)C(=O)N1 [Thalidomide]
Summary of the method: as §1

[11] = compound: CC(=O)c1c(C)c2cnc(Nc3ccc(N4CCNCC4)cn3)nc2n(C2CCCC2)c1=O [Palbociclib]
Summary of the method: as §1

[12] = compound: CC1(C)CCC(c2ccc(Cl)cc2)=C(CN2CCN(c3ccc(C(=O)NS(=O)(=O)c4ccc(N[C@H](CCN5CCOCC5)CSc5ccccc5)c(S(=O)(=O)C(F)(F)F)c4)cc3)CC2)C1 [Navitoclax]
Summary of the method: as §1

[13] = compound: CCNC(=O)C[C@@H]1N=C(c2ccc(Cl)cc2)c2cc(OC)ccc2-n2c(C)nnc21 [I-BET-762]
Summary of the method: as §1

Work on primary AML patient cells (S055) yielded a viability ([1]; 0.032 µM) of 1.03, a viability ([1]; 0.16 µM) of 1 and a viability ([1]; 0.8 µM) of 0.989. The viability ([1]; 4 µM) was 1.03, the viability ([1]; 20 µM) was 0.937 and the viability ([2]; 0.0016 µM) was 0.937. For the same test system, the viability ([2]; 0.008 µM) was 0.954, the viability ([2]; 0.04 µM) was 0.893 and the viability ([2]; 0.2 µM) was 0.862. The viability ([2]; 1 µM) was 0.77, the viability ([3]; 0.032 µM) was 0.978 and the viability ([3]; 0.16 µM) was 1.02. It also gave a viability ([3]; 0.8 µM) of 0.995, a viability ([3]; 4 µM) of 0.995 and a viability ([3]; 20 µM) of 0.952. The viability ([4]; 0.0032 µM) was 0.955, the viability ([4]; 0.016 µM) was 0.951 and the viability ([4]; 0.08 µM) was 0.978. The viability ([4]; 0.4 µM) was 0.966, the viability ([4]; 2 µM) was 0.975 and the viability ([5]; 0.008 µM) was 0.92. The viability ([5]; 0.04 µM) was 0.861, the viability ([5]; 0.2 µM) was 0.833 and the viability ([5]; 1 µM) was 0.575. For the same test system, the viability ([5]; 5 µM) was 0.535, the viability ([6]; 0.024 µM) was 0.923 and the viability ([6]; 0.12 µM) was 1.01. The viability ([6]; 0.6 µM) was 0.907, the viability ([6]; 3 µM) was 0.975 and the viability ([6]; 15 µM) was 0.997. For the same test system, the viability ([7]; 0.008 µM) was 0.929, the viability ([7]; 0.04 µM) was 0.819 and the viability ([7]; 0.2 µM) was 0.652. The viability ([7]; 1 µM) was 0.52, the viability ([7]; 5 µM) was 0.498 and the viability ([8]; 0.024 µM) was 0.942. For the same test system, the viability ([8]; 0.12 µM) was 0.936, the viability ([8]; 0.6 µM) was 0.959 and the viability ([8]; 3 µM) was 0.916. The viability ([8]; 15 µM) was 0.594, the viability ([9]; 0.032 µM) was 0.993 and the viability ([9]; 0.16 µM) was 1.04. It also gave a viability ([9]; 0.8 µM) of 0.988, a viability ([9]; 4 µM) of 0.997 and a viability ([9]; 20 µM) of 0.841. It also gave a viability ([10]; 0.032 µM) of 0.916, a viability ([10]; 0.16 µM) of 0.94 and a viability ([10]; 0.8 µM) of 0.894. It also gave a viability ([10]; 4 µM) of 0.931 and a viability ([10]; 20 µM) of 0.876.

primary DLBCL patient cells (S076) was tested, and the viability ([11]; 0.024 µM) was 1.14, the viability ([11]; 0.12 µM) was 1.14 and the viability ([11]; 0.6 µM) was 0.991. For the same test system, the viability ([11]; 3 µM) was 0.647, the viability ([11]; 15 µM) was 0.221 and the viability ([12]; 0.0032 µM) was 1.07. The viability ([12]; 0.016 µM) was 0.95, the viability ([12]; 0.08 µM) was 0.689 and the viability ([12]; 0.4 µM) was 0.279. For the same test system, the viability ([12]; 2 µM) was 0.15, the viability ([13]; 0.008 µM) was 1.08 and the viability ([13]; 0.04 µM) was 1.04. It also gave a viability ([13]; 0.2 µM) of 0.94, a viability ([13]; 1 µM) of 0.82 and a viability ([13]; 5 µM) of 0.738. The viability ([1]; 0.032 µM) was 0.882, the viability ([1]; 0.16 µM) was 1.05 and the viability ([1]; 0.8 µM) was 0.81. It also gave a viability ([1]; 4 µM) of 0.901, a viability ([1]; 20 µM) of 0.551 and a viability ([2]; 0.0016 µM) of 0.884. It also gave a viability ([2]; 0.008 µM) of 0.839, a viability ([2]; 0.04 µM) of 0.732 and a viability ([2]; 0.2 µM) of 0.718. The viability ([2]; 1 µM) was 0.611, the viability ([3]; 0.032 µM) was 0.945 and the viability ([3]; 0.16 µM) was 1.1. It also gave a viability ([3]; 0.8 µM) of 1.08, a viability ([3]; 4 µM) of 0.965 and a viability ([3]; 20 µM) of 0.759. It also gave a viability ([4]; 0.0032 µM) of 0.926, a viability ([4]; 0.016 µM) of 1.07 and a viability ([4]; 0.08 µM) of 1.08. It also gave a viability ([4]; 0.4 µM) of 0.84, a viability ([4]; 2 µM) of 1.05 and a viability ([5]; 0.008 µM) of 0.97. For the same test system, the viability ([5]; 0.04 µM) was 0.943, the viability ([5]; 0.2 µM) was 0.819 and the viability ([5]; 1 µM) was 0.563. For the same test system, the viability ([5]; 5 µM) was 0.331, the viability ([6]; 0.024 µM) was 1.15 and the viability ([6]; 0.12 µM) was 1.12. The viability ([6]; 0.6 µM) was 1.09, the viability ([6]; 3 µM) was 1.13 and the viability ([6]; 15 µM) was 1.17. It also gave a viability ([7]; 0.008 µM) of 0.991, a viability ([7]; 0.04 µM) of 0.912 and a viability ([7]; 0.2 µM) of 0.796. The viability ([7]; 1 µM) was 0.694, the viability ([7]; 5 µM) was 0.622 and the viability ([8]; 0.024 µM) was 1.02. The viability ([8]; 0.12 µM) was 1.03, the viability ([8]; 0.6 µM) was 0.966 and the viability ([8]; 3 µM) was 0.911. The viability ([8]; 15 µM) was 0.348, the viability ([9]; 0.032 µM) was 1.02 and the viability ([9]; 0.16 µM) was 0.886. For the same test system, the viability ([9]; 0.8 µM) was 1.03, the viability ([9]; 4 µM) was 0.858 and the viability ([9]; 20 µM) was 0.431. For the same test system, the viability ([10]; 0.032 µM) was 1.06, the viability ([10]; 0.16 µM) was 0.993 and the viability ([10]; 0.8 µM) was 1.09. It also gave a viability ([10]; 4 µM) of 1.11 and a viability ([10]; 20 µM) of 1.06.
